Assay results from EPA's ToxRefDB 2.

Columns and labels:
rat [1] = settings: Subchronic oral toxicity in rodents, sprague dawley, Gavage/Intubation, dose end: 91 day, group: systemic
mouse [2] = settings: Combined chronic toxicity/carcinogenicity, other, Oral, Feed, dose end: 80 week, group: systemic
rat [3] = settings: Subchronic oral toxicity in rodents, wistar, Feed, dose end: 13 week, group: systemic
rat [4] = settings: Prenatal developmental toxicity study, sprague dawley, Oral, Gavage/Intubation, dose end: 15 GD
rabbit [5] = settings: Prenatal developmental toxicity study, new zealand white, Oral, Gavage/Intubation, dose end: 18 GD
mouse [6] = settings: Carcinogenicity, other, Oral, Feed, dose end: 18 month, group: systemic
mouse [7] = settings: Subchronic oral toxicity in rodents, other, Feed, dose end: 13 week, group: systemic
rat [8] = settings: Multigenerational reproductive toxicity study, sprague dawley, Oral, Feed, dose end: 2 generation
mouse [9] = settings: Carcinogenicity, cd1, Oral, Feed, dose end: 78 week, group: systemic
rat [10] = settings: Subchronic oral toxicity in rodents, sprague dawley, Feed, dose end: 13 week
rat [11] = settings: Prenatal developmental toxicity study, Sprague-Dawley, Oral, Gavage/Intubation, dose end: 15 GD
dog [12] = settings: Chronic toxicity, beagle, Oral, Capsule, dose end: 12 month
rabbit [13] = settings: Prenatal developmental toxicity study, new zealand white, Oral, Gavage/Intubation, dose end: 19 GD
dog [14] = settings: Subchronic oral toxicity in nonrodent, beagle, Feed, dose end: 3 month
[15] = systemic / in life observation / mortality / mortality + systemic / pathology microscopic / kidney / hydronephrosis + systemic / clinical …
[16] = systemic / clinical chemistry / immunoglobulins / immunoglobulins + systemic / pathology microscopic / thymus / cyst
[17] = systemic / clinical chemistry / aspartate aminotransferase (ast/sgot) / aspartate aminotransferase (ast/sgot) + systemic / in life …
[18] = group: developmental, developmental / developmental malformation / bone / unossified + systemic / in life observation / body weight / fetal weight
[19] = group: maternal, systemic / in life observation / body weight / body weight gain + systemic / in life observation / clinical signs / poor general condition
[20] = group: maternal, systemic / in life observation / body weight / body weight gain + systemic / in life observation / clinical signs / poor general condition…
[21] = group: developmental, systemic / in life observation / body weight / fetal weight
[22] = group: developmental, systemic / in life observation / body weight / fetal weight + developmental / developmental malformation / bone / unossified
[23] = group: maternal, systemic / in life observation / body weight / body weight gain + reproductive / reproductive performance / aborted / aborted + systemic / …
[24] = systemic / clinical chemistry / immunoglobulins / immunoglobulins
[25] = systemic / organ weight / adrenal gland / absolute
[26] = systemic / organ weight / adrenal gland / absolute + systemic / clinical chemistry / albumin / albumin + systemic / clinical chemistry / …
[27] = group: offspring, systemic / in life observation / body weight / offspring (pup) weight
[28] = group: parental, systemic / in life observation / body weight / body weight
[29] = group: parental, systemic / in life observation / body weight / body weight + systemic / pathology microscopic / heart / cardiomyopathy
[30] = systemic / in life observation / body weight / body weight + systemic / in life observation / food consumption / food consumption
[31] = group: cholinesterase, cholinesterase / cholinesterase / cholinesterase / brain cholinesterase (che) + cholinesterase / cholinesterase / cholinesterase / plasma …
[32] = group: cholinesterase, cholinesterase / cholinesterase / cholinesterase / plasma cholinesterase (che)
[33] = group: systemic, systemic / in life observation / body weight / body weight + systemic / in life observation / body weight / body weight gain + systemic / in…
[34] = group: systemic, systemic / in life observation / body weight / body weight + systemic / in life observation / body weight / body weight gain + systemic / …
[35] = group: developmental, developmental / developmental malformation / bone / unossified + developmental / developmental malformation / trunk / omphalocele + systemic…
[36] = group: maternal, reproductive / reproductive performance / resorptions / resorptions + systemic / in life observation / body weight / body weight + systemic…
[37] = group: systemic, systemic / pathology microscopic / thymus / atrophy
[38] = group: cholinesterase, cholinesterase / cholinesterase / cholinesterase / erythrocyte cholinesterase (che) + cholinesterase / cholinesterase / cholinesterase / …
[39] = group: maternal, systemic / in life observation / body weight / body weight + systemic / in life observation / clinical signs / fur (altered appearance) + …
[40] = group: systemic, systemic / in life observation / clinical signs / salivation + systemic / clinical chemistry / urea nitrogen / urea nitrogen + systemic / in…

## [PH]=[Zn].[PH]=[Zn].[Zn] [Zinc phosphide]
Rat [1]; systemic / in life observation / clinical signs / body cold to touch + systemic / in life observation / clinical signs / salivation + …
  NEL: 0.1 mg/kg/day
Rat [1]; systemic / in life observation / mortality / mortality + systemic / pathology microscopic / kidney / hydronephrosis
  LOAEL: 1 mg/kg/day
Rat [1]; [15]
  LEL: 1 mg/kg/day
  NOAEL: 0.1 mg/kg/day

## [OH-].c1cc[c]([Sn+]([c]2ccccc2)[c]2ccccc2)cc1 [Triphenyltin hydroxide]
Mouse [2]; [16]
  LEL: 0.85 mg/kg/day
  NEL: < 0.85 mg/kg/day
Mouse [2]; systemic / clinical chemistry / immunoglobulins / immunoglobulins + systemic / pathology microscopic / thymus / cyst + systemic / in life …
  NOAEL: 3.5 mg/kg/day
Mouse [2]; systemic / in life observation / body weight / body weight gain + systemic / organ weight / liver / absolute + systemic / organ weight / …
  LOAEL: 15.2 mg/kg/day
Rat [3]; systemic / clinical chemistry / aspartate aminotransferase (ast/sgot) / aspartate aminotransferase (ast/sgot) + systemic / clinical …
  LEL: 1.56 mg/kg/day
Rat [3]; [17]
  LOAEL: 7.41 mg/kg/day
  NEL: 0.3 mg/kg/day
  NOAEL: 1.56 mg/kg/day
Rat [4]; [18]
  LEL: 8 mg/kg/day
  LOAEL: 8 mg/kg/day
  NEL: 2.8 mg/kg/day
  NOAEL: 2.8 mg/kg/day
Rat [4]; [19]
  LEL: 2.8 mg/kg/day
  LOAEL: 2.8 mg/kg/day
Rat [4]; [20]
  NEL: 1 mg/kg/day
  NOAEL: 1 mg/kg/day
Rabbit [5]; [21]
  LOAEL: 0.9 mg/kg/day
Rabbit [5]; [22]
  LEL: 0.9 mg/kg/day
  NEL: 0.3 mg/kg/day
  NOAEL: 0.3 mg/kg/day
Rabbit [5]; group: maternal, systemic / in life observation / body weight / body weight gain
  LOAEL: 0.3 mg/kg/day
Rabbit [5]; [23]
  NEL: 0.1 mg/kg/day
  NOAEL: 0.1 mg/kg/day
Rabbit [5]; group: maternal, systemic / in life observation / body weight / body weight gain + systemic / in life observation / body weight / body weight + systemic / in…
  LEL: 0.3 mg/kg/day
Mouse [6]; [24]
  LOAEL: 0.85 mg/kg/day
  NOAEL: < 0.85 mg/kg/day
Mouse [6]; [16]
  LEL: 0.85 mg/kg/day
  NEL: < 0.85 mg/kg/day
Mouse [7]; [25]
  LEL: 4.12 mg/kg/day
  LOAEL: 4.12 mg/kg/day
Mouse [7]; [26]
  NEL: 0.88 mg/kg/day
  NOAEL: 0.88 mg/kg/day

## CCCN(CCC)C(=O)SCC [EPTC]
Rat [8]; [27]
  LEL: 40 mg/kg/day
  LOAEL: 40 mg/kg/day
  NEL: 10 mg/kg/day
  NOAEL: 10 mg/kg/day
Rat [8]; [28]
  NEL: 2.5 mg/kg/day
  NOAEL: 2.5 mg/kg/day
Rat [8]; [29]
  LEL: 10 mg/kg/day
  LOAEL: 10 mg/kg/day
Mouse [9]; systemic / in life observation / body weight / body weight
  LEL: 90 mg/kg/day
Mouse [9]; [30]
  LOAEL: 270 mg/kg/day
  NEL: 30 mg/kg/day
  NOAEL: 90 mg/kg/day
Rat [10]; [31]
  LOAEL: > 120 mg/kg/day
  NOAEL: ≥ 120 mg/kg/day
Rat [10]; [32]
  LEL: 72 mg/kg/day
  NEL: 15 mg/kg/day
Rat [10]; [33]
  LOAEL: 15 mg/kg/day
  NOAEL: 3 mg/kg/day
Rat [10]; [34]
  LEL: 3 mg/kg/day
  NEL: < 3 mg/kg/day
Rat [11]; [35]
  LEL: 300 mg/kg/day
  LOAEL: 300 mg/kg/day
  NEL: 100 mg/kg/day
  NOAEL: 100 mg/kg/day
Rat [11]; group: maternal, reproductive / reproductive performance / postimplantation loss / postimplantation loss
  LEL: 100 mg/kg/day
Rat [11]; [36]
  LOAEL: 300 mg/kg/day
  NEL: 30 mg/kg/day
  NOAEL: 100 mg/kg/day
Dog [12]; [32]
  LEL: 8 mg/kg/day
  LOAEL: 8 mg/kg/day
  NEL: 1 mg/kg/day
  NOAEL: 1 mg/kg/day
Dog [12]; group: systemic, systemic / pathology microscopic / lung / fibrosis + systemic / pathology microscopic / lung / inflammation + systemic / clinical chemistry…
  NOAEL: 1 mg/kg/day
Dog [12]; group: systemic, systemic / pathology microscopic / lung / fibrosis + systemic / pathology microscopic / lung / inflammation + systemic / in life observation…
  LOAEL: 8 mg/kg/day
Dog [12]; [37]
  LEL: 1 mg/kg/day
  NEL: < 1 mg/kg/day
Rabbit [13]; [38]
  LEL: 5 mg/kg/day
  LOAEL: 5 mg/kg/day
  NEL: < 5 mg/kg/day
  NOAEL: < 5 mg/kg/day
Rabbit [13]; [21]
  LEL: 300 mg/kg/day
  LOAEL: 300 mg/kg/day
  NEL: 40 mg/kg/day
  NOAEL: 40 mg/kg/day
Rabbit [13]; [39]
  LEL: 300 mg/kg/day
  LOAEL: 300 mg/kg/day
  NEL: 40 mg/kg/day
  NOAEL: 40 mg/kg/day
Dog [14]; [32]
  LEL: 45 mg/kg/day
  LOAEL: 45 mg/kg/day
  NEL: 15 mg/kg/day
  NOAEL: 15 mg/kg/day
Dog [14]; group: systemic, systemic / in life observation / clinical signs / salivation
  LOAEL: 45 mg/kg/day
Dog [14]; [40]
  LEL: 45 mg/kg/day
  NEL: 15 mg/kg/day
  NOAEL: 15 mg/kg/day
